Values joined by “and” are separate entries in the source; they are usually repeats but may differ in a detail not shown here. Equal entries are not always repeated. Where two headings read alike, the source gives them in different places.
What was measured:
[1] = tested on: A549 cells (non-small-cell lung cancer); assay: MTT cytotoxicity assay, A549; conditions: for IC50: Homo sapiens, A549, 24 h, read-out: Cytotoxicity IC50 A549
Method: (§1) Breast carcinoma (MCF-7), renal cell carcinoma (A498), lung cancer (A549), and liver carcinoma (HepG2) cell lines, in addition to non-tumorigenic WI-38 cell lines, were collected from the American Type Culture Collection. The cells were grown in DMEM (Invitrogen/Life Technologies) containing 1% penicillin-streptomycin, 10 µg/mL of insulin (Sigma), and 10% FBS (Hyclone).
(§2) To check the possible cellular toxicity, synthesized compounds were subjected to the MTT [3-(4,5-dimethylthiazol-2-yl)-2,5-diphenyltetrazolium bromide] assay against the MCF7, A549, A498, and HepG2 cell lines. […] Later, 2.0–3.0 mL of Trypsin EDTA solution was added into the flask containing the cell layers for 5–15 min to disperse the cell layer, which was observed through an inverted microscope. By gently pipetting, aspirated cells were added into a 6.0–8.0 mL growth medium. […] An amount of 20 μL of a 5-mg/mL MTT solution was applied after a 24-h drug-treatment period, and it was incubated for 4 h. To dissolve the produced purple formazan, each well received 100 μL of dimethyl sulfoxide (DMSO).

[2] = tested on: MCF-7 cells; assay: Cell cycle analysis by flow cytometry (PI); format: cell-based
Method: These findings imply that compound 5d’s cytotoxicity was proven by the arrest of cell growth at the G2/M phase.
Compound 5d was applied to MCF-7 cell culture for 48 h at its IC50 concentration. Briefly, cells were rinsed twice with phosphate buffer saline (PBS) (ice-cold) and then centrifuged and/or fixed in 70% (v/v) ethanol (ice-cold). The solution was rinsed with PBS, suspended with RNase (0.1 mg/mL), stained with propidium iodide (PI) ([…]), and analyzed via flow cytometry utilizing the FACS Calibur (Becton Dickinson, Franklin Lakes, NJ, USA). Through Cell-Quest software (Becton Dickinson), cell cycle distributions were calculated.

[3] = tested on: MCF-7 cells; assay: Apoptosis determination by Annexin-V assay; format: cell-based; conditions: MCF-7, IC50 concentration
Method: A biparametric cytofluorimetric analysis was performed using the Annexin-V assay to verify the ability of compound 5d at its IC50 concentration to trigger apoptosis. When compared to the control, compound 5d increased the proportion of early and late apoptotic cells in MCF-7 cells by nearly 13- and 60-fold, respectively, when compared to control cells, which had 0.53% and 0.25% early and late apoptotic cells, respectively.
The MCF-7 cell culture was treated with an IC50 of compound 5d for 48 h. The cancer cells were then suspended in PBS, centrifuged, and preserved in 99% ethanol (ice-cold). Cells suspended in ethanol were centrifuged for 5 min before being suspended in PBS and re-centrifuged once again. The supernatant was decanted, and the cells were stained at 37 °C with annexin V fluorescein isothiocyanate and PI using the apoptosis detection kit (BD Biosciences, San Jose, CA, USA) following the manufacturer’s instructions. A flow cytometer was used to examine the binding of annexin V-FITC and PI. The FACS Calibur was used to assess the cells, and Phoenix Flow Systems and Verity Software House were employed to calculate their distributions.

[4] = tested on: WI-38 cells (normal cell derived from lung tissue); assay: Cytotoxicity on non-tumorigenic WI-38 cell line; conditions: Homo sapiens, WI-38, read-out: WI-38 IC50
Method: as §1, §2

[5] = tested on: MCF7 cells (breast carcinoma); assay: MTT cytotoxicity assay, MCF7; conditions: for IC50: Homo sapiens, MCF7, 24 h, read-out: Cytotoxicity IC50 MCF7
Method: as §1, §2

[6] = tested on: A498 cells (renal carcinoma); assay: MTT cytotoxicity assay, A498; conditions: for IC50: Homo sapiens, A498, 24 h, read-out: Cytotoxicity IC50 A498
Method: as §1, §2

[7] = biological target: T1, human COX-2 (Homo sapiens, UniProt P35354); assay: COX-2 inhibition assay (fluorometric inhibitor screening kit); format: biochemical; conditions: for inhibition at 10 µM / inhibition at 1 µM / inhibition at 0.1 µM / inhibition at 0.01 µM / inhibition at 0.001 µM: read-out: COX-2 Inhibition (%)
T1 construct: purchased Biovision, Zurich, Switzerland
T1 sequence (P35354 18-604): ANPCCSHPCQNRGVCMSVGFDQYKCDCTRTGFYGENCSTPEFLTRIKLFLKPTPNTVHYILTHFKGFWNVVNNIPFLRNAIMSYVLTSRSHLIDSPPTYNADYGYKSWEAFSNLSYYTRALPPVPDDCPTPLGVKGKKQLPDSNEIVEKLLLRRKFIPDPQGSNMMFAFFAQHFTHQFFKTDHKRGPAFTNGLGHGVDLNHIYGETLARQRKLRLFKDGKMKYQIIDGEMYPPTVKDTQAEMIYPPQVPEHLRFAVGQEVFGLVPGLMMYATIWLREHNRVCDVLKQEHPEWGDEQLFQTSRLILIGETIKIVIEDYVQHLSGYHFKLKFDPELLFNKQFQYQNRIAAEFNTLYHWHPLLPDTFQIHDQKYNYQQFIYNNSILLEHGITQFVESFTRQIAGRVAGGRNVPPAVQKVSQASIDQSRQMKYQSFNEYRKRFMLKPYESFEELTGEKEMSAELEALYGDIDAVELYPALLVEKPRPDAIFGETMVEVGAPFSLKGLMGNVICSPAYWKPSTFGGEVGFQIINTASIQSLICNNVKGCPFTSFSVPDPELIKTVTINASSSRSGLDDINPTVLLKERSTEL
Text: Fluorometric inhibitor screening kits (Biovision, Zurich, Switzerland) were utilized for the COX-2 enzyme inhibition test, as described before.

[8] = tested on: HepG2 cells (liver carcinoma); assay: MTT cytotoxicity assay, HepG2; conditions: for IC50: Homo sapiens, HepG2, 24 h, read-out: Cytotoxicity IC50 HepG2
Method: as §1, §2

[9] = tested on: MDA-MB-231 breast cancer cell line; design: method as in PMID 28486908; conditions: cited from earlier work
[10] = tested on: MCF-7; conditions: breast cancer cell line; cited from earlier work
[11] = tested on: gastric MGC-803 cancer cells; design: method as in PMID 25610955, PMID 25180925; conditions: cited from earlier work
[12] = tested on: HeLa cell lines; design: method as in doi:10.1007/s00044-012-0051-9; conditions: anticancer activity in vitro; cited from earlier work
[13] = tested on: COX-2; conditions: cited from earlier work
[14] = MCF-7, compound at its IC50 concentration, 48 h

COc1ccc(-c2nc(NS(=O)(=O)c3ccc(C(F)(F)F)cc3)nc(OC)c2C#N)cc1 [Compound 5d, N-(5-Cyano-4-methoxy-6-(4-methoxyphenyl)pyrimidin-2-yl)-4-(trifluoromethyl)benzene sulfonamide]
IC50 [1]: 1 ± 0.05 nM
fold more cytotoxic than doxorubicin, A549 ([1]; versus doxorubicin): ~13 fold
accumulation of cell population in G2/M phase compared to control ([2]; MCF-7, IC50 concentration): 5 times
accumulation of cell population in sub-G1 phase compared to control ([2]; MCF-7, IC50 concentration): 16 times
%G0-G1 [2, 14]: 24.39 ± 3.01 %
%G2/M [2, 14]: 58.37 ± 0.52 %
%Pre-G1 [2, 14]: 26.16 ± 1.53%
%S [2, 14]: 16.23% and 16.23 ± 1.23 %
increase of proportion of early apoptotic cells versus control [3]: ~13 fold
increase of proportion of late apoptotic cells versus control [3]: ~60 fold
proportion of necrosis versus control [3]: three-fold
Apoptosis Early ([3]; 48 h): 6.78 ± 0.25%
Apoptosis Late ([3]; 48 h): 14.96 ± 1.10%
Necrosis ([3]; 48 h): 2.83 ± 0.47%
IC50 [4]: 91290 ± 470 nM
IC50 [5]: 1 ± 0.03 nM
fold more cytotoxic than doxorubicin, MCF7 ([5]; versus doxorubicin): about 9 fold
IC50 [6]: 2 ± 0.08 nM
fold more cytotoxic than doxorubicin, A498 ([6]; versus doxorubicin): ~3.5 fold
melting point: 291 to 293 °C
inhibition at 10 µM ([7]; 10^−5 M, mean of three experiments ± SD): 41.8 ± 0.91%
inhibition at 1 µM ([7]; 10^−6 M, mean of three experiments ± SD): 35.9 ± 0.72%
inhibition at 0.1 µM ([7]; 10^−7 M, mean of three experiments ± SD): 23.1 ± 0.25%
inhibition at 0.01 µM ([7]; 10^−8 M, mean of three experiments ± SD): 76.1 ± 1.05%
inhibition at 0.001 µM ([7]; 10^−9 M, mean of three experiments ± SD): 60.7 ± 1.09%
IC50 ([7]; human COX-2 assay kit, three experiments): 160 ± 10 nM
IC50 [8]: 9 ± 0.34 nM
fold more cytotoxic than doxorubicin, HepG2 ([8]; versus doxorubicin): ~2.8 fold

COc1ccc(-c2nc(N3N=C(c4ccc(F)cc4)CCC3=O)n(C)c(=O)c2C#N)cc1 [Compound V]
IC50 [9]: 3430 nM
IC50 [10]: 2560 nM

COc1cccc2c1C(=O)c1c(O)c3c(c(O)c1C2=O)C[C@@](O)(C(=O)CO)C[C@@H]3O[C@H]1C[C@H](N)[C@H](O)[C@H](C)O1 [Doxorubicin, doxorubicin, reference compound]
IC50 [1]: 13 ± 0.42 nM
IC50 [4]: 8830 ± 90 nM
IC50 [5]: 9 ± 0.26 nM
IC50 [6]: 7 ± 0.23 nM
IC50 [8]: 25 ± 0.55 nM

C#CCSc1nc(NC(N)=S)c(C#N)c(-c2cc(OC)c(OC)c(OC)c2)n1 [III]
IC50 [11]: 4010 nM

COc1ccc(-c2nc(Nc3ccc(S(N)(=O)=O)cc3)n3c(C)nnc3c2C#N)cc1OC [II]
IC50 [12]: 39 nM

CS(=O)(=O)Nc1ccc([N+](=O)[O-])cc1Oc1ccccc1 [Nimesulide, reference compound]
inhibition at 0.001 µM [7]: 17.1 ± 0.38%
inhibition at 0.01 µM [7]: 24 ± 0.42%
inhibition at 0.1 µM [7]: 29.4 ± 0.55%
inhibition at 1 µM [7]: 36.4 ± 0.84%
inhibition at 10 µM [7]: 69.5 ± 1.02%

NS(=O)(=O)c1ccc(-c2nc(Cl)cc(NCc3cccs3)n2)cc1 [VII]
IC50 ([13]; COX-2 inhibitor potency): 12.7 nM

CS(=O)(=O)c1ccc(C2=C(c3ccccc3)C(=O)OC2)cc1 [rofecoxib]
IC50 [13]: 292 nM

Reference: article PMC9658812, “New Pyrimidine-5-Carbonitriles as COX-2 Inhibitors: Design, Synthesis, Anticancer Screening, Molecular Docking, and In Silico ADME Profile Studies” (Molecules, 2022)
